Experiments:
[1] = molecular target: rat P2X7 receptor, rP2X7-ΔBallast (Rattus norvegicus, UniProt Q64663)
[2] = molecular target: T1, rat P2X7 receptor (rP2X7) (Rattus norvegicus, UniProt Q64663); assay: cryo-EM structure; format: cell-based
T1 sequence (Q64663 1-595): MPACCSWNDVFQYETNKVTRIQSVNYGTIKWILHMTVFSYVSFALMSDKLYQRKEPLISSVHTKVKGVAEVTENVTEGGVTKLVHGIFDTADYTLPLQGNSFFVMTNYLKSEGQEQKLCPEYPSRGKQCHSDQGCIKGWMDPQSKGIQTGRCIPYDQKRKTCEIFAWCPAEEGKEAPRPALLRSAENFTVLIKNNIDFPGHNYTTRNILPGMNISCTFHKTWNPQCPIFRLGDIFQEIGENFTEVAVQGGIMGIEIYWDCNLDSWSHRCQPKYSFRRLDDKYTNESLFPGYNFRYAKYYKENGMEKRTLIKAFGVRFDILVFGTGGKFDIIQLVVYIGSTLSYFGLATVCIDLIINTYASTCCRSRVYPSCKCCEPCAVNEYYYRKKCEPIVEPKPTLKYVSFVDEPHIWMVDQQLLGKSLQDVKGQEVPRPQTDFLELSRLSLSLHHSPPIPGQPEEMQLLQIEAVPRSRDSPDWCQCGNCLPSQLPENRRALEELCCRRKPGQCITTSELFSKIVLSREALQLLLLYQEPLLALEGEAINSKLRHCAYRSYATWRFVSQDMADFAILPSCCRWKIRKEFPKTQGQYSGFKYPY

[3] = molecular target: T1, rat P2X7 receptor (rP2X7); assay: SPA competition with 3H-GDP; format: binding
[4] = molecular target: T1, rat P2X7 receptor (rP2X7); assay: cryo-EM structure; format: binding

SMILES | Ki [3] [µM] | also measured
Nc1ncnc2c1ncn2[C@@H]1O[C@H](COP(=O)(O)OP(=O)(O)OP(=O)(O)O)[C@@H](O)[C@H]1O [ATP] |  | EC50 [1]: 52 ± 11 µM; EC50 [2]: 42 ± 3 µM
Nc1ccn([C@@H]2O[C@H](COP(=O)(O)OP(=O)(O)OP(=O)(O)O)[C@@H](O)[C@H]2O)c(=O)n1 [CTP] | 130 ± 3 | 
Nc1nc2c(ncn2[C@@H]2O[C@H](COP(=O)(O)OP(=O)(O)O)[C@@H](O)[C@H]2O)c(=O)[nH]1 [GDP] |  | Kd [4]: 0.04 ± 0.01 µM
Nc1nc2c(ncn2[C@@H]2O[C@H](COP(=O)(O)OP(=O)(O)OP(O)(O)=S)[C@@H](O)[C@H]2O)c(=O)[nH]1 [GTP-γ-S] | 0.1 ± 0.01 | 

Further lines, with some results ahead:

Ki [3] [µM] | SMILES | also measured
0.15 ± 0.015 | Nc1nc2c(ncn2[C@@H]2O[C@H](COP(=O)(O)OP(=O)(O)OP(=O)(O)O)[C@@H](O)[C@H]2O)c(=O)[nH]1 [GTP] | 
60 ± 10 | O=c1ccn([C@@H]2O[C@H](COP(=O)(O)OP(=O)(O)OP(=O)(O)O)[C@@H](O)[C@H]2O)c(=O)[nH]1 [UTP] | 
